The values that follow come from patent US20230399312A1, “SUBSTITUTED PYRIMIDINES AND METHODS OF USE” (THERAVANCE BIOPHARMA R&D IP, LLC, priority 2020, published 2023).

Assay [1] addresses T1, recombinant human ALK5 (TGF-βR1) protein (Homo sapiens, UniProt P36897).
T1 construct: purchased Life Technologies PR9075A
T1 sequence (P36897 34-503): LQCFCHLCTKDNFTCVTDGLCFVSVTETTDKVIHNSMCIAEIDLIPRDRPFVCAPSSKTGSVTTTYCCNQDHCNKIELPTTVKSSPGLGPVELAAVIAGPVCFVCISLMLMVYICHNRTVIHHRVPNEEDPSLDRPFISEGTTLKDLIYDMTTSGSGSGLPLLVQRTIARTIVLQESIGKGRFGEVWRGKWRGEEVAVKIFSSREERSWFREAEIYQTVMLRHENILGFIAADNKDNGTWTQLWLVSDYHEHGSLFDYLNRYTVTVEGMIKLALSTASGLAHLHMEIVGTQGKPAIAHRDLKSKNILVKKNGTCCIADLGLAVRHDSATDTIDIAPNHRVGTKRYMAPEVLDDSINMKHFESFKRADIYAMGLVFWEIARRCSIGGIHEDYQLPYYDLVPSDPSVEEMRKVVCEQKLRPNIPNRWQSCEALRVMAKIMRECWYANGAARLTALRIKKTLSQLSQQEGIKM
Put plainly: Biochemical ALK5 (TGF-βR1) assay to measure pKi (LANCE Ultra ULight kinase assay). The note with it: apparent pKi, converted from pIC50 by Cheng-Prusoff. Summed up: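 Cmpd + enzyme, 60 min RT; ATP from 125 μM (5×) stock, 60 min 37 °C; stop 12 mM EDTA/Eu anti-pThr1342 Topo2α Ab (pH 7.0 buffer); TR-FRET 665 nm. DMSO = max, SD-208 = min signal. 4-PL pIC50 → pKi (Cheng-Prusoff).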
A general note: Time-resolved FRET reads energy transfer from a long-lived donor to a nearby acceptor.

Assay [2] deals with TGF-β-stimulated SMAD3 phosphorylation in BEAS-2B cells. Put plainly: Cellular ALK5 potency assay, inhibition of TGF-β stimulated pSMAD3 formation in BEAS-2B cells. Type of assay: cell-based. To be noted: Homo sapiens, pSMAD3, TGF-β 10 ng/mL, read-out: BEAS2B pIC50 (converted). Summed up:
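Human lung epithelial BEAS-2B cells were pre-treated with compound for 1 h at 37 °C, then stimulated with TGF-β (final 10 ng/mL) for 30 min before lysis. pSMAD3 was quantified by AlphaLISA and pIC50 derived from dose-dependent signal change versus TGF-β-stimulated untreated cells.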

SMILES strings stand for the structures. Where only a bound is given, the exact number is not on record here.

Turning to `Cc1cccc(-c2nccc(Nc3ccnc(Nc4ccc(CC5CCNCC5)cc4)n3)n2)n1` [Compound 476, N4-[2-(6-methyl-2-pyridyl)pyrimidin-4-yl]-N2-[4-(4-piperidylmethyl)phenyl] pyrimidine-2,4-diamine], the Ki in assay [1] was 0.0398 to 0.316 nM. Also, in assay [2], the IC50 was 25.1 to 158 nM.
For the molecule `Cc1cccc(-c2nccc(Nc3ccnc(Nc4cccc(NC(=O)NCC5CNC5)c4)n3)n2)n1` [Compound 477, 1-(azetidin-3-ylmethyl)-3-[3-[[4-[[2-(6-methyl-2-pyridyl)pyrimidin-4-yl]amino]pyrimidin-2-yl]amino]phenyl]urea], the Ki in assay [1] was 0.0398 to 0.316 nM. For the same molecule, the IC50 in assay [2] was ≤ 20 nM.
In the same order, the values of `Cc1cccc(-c2nccc(Nc3ccnc(Nc4ccc(N5CCN(CCN)CC5)cc4)n3)n2)n1` [Compound 478, N2-[4-[4-(2-aminoethyl)piperazin-1-yl]phenyl]-N4-[2-(6-methyl-2-pyridyl)pyrimidin-4-yl]pyrimidine-2,4-diamine] are 0.0398 to 0.316 nM and 200 to 1260 nM.
The corresponding values for `Cc1cccc(-c2nccc(Nc3ccnc(Nc4ccc(N5CCCC(C(=O)O[C@@H]6CCNC6)C5)cc4)n3)n2)n1` (stereo partly drawn) [Compound 479, [(3R)-pyrrolidin-3-yl] 1-[4-[[4-[[2-(6-methyl-2-pyridyl)pyrimidin-4-yl]amino]pyrimidin-2-yl]amino]phenyl]piperidine-3-carboxylate] are 0.0398 to 0.316 nM and 25.1 to 158 nM.
The corresponding values for `Cc1cccc(-c2nccc(Nc3ccnc(Nc4ccc(CN5CCNCC5(C)C)cc4)n3)n2)n1` [Compound 480, N2-[4-[(2,2-dimethylpiperazin-1-yl)methyl]phenyl]-N4-[2-(6-methyl-2-pyridyl)pyrimidin-4-yl]pyrimidine-2,4-diamine] are 0.0398 to 0.316 nM and 25.1 to 158 nM.
For the molecule `COC(=O)C1CN(Cc2ccc(Nc3nccc(Nc4ccnc(-c5cccc(C)n5)n4)n3)cc2)CCN1C(C)C` (stereo not drawn) [Compound 481, methyl 1-isopropyl-4-[[4-[[4-[[2-(6-methyl-2-pyridyl)pyrimidin-4-yl]amino]pyrimidin-2-yl]amino]phenyl]methyl] piperazine-2-carboxylate], the Ki in assay [1] was 0.398 to 3.16 nM. In assay [2], the IC50 was 25.1 to 158 nM.
In the same order, the values of `Cc1cccc(-c2nc(C)cc(Nc3ccnc(Nc4ccc(N5CCNCC5)cc4)n3)n2)n1` [Compound 482, N4-[6-methyl-2-(6-methyl-2-pyridyl)pyrimidin-4-yl]-N2-(4-piperazin-1-ylphenyl)pyrimidine-2,4-diamine] are 0.0398 to 0.316 nM and 25.1 to 158 nM.
`CNCCN1CCN(c2ccc(Nc3nccc(Nc4ccnc(-c5cccc(C)n5)n4)n3)cc2)CC1` [Compound 483, N2-[4-[4-[2-(methylamino)ethyl]piperazin-1-yl]phenyl]-N4-[2-(6-methyl-2-pyridyl)pyrimidin-4-yl]pyrimidine-2,4-diamine]: the Ki in assay [1] was 0.0398 to 0.316 nM. Moreover, in assay [2], the IC50 was 200 to 1260 nM.
For the molecule `Cc1cccc(-c2nccc(Nc3ccnc(Nc4ccc(CN5CCC(C(=O)O)CC5)cc4)n3)n2)n1` [Compound 484, 1-[[4-[[4-[[2-(6-methyl-2-pyridyl)pyrimidin-4-yl]amino]pyrimidin-2-yl]amino]phenyl]methyl] piperidine-4-carboxylic acid], the Ki in assay [1] was 0.0398 to 0.316 nM. The IC50 in assay [2] was 200 to 1260 nM.
`Cc1cccc(-c2nccc(Nc3ccnc(Nc4ccc(Cc5ncco5)cc4)n3)n2)n1` [Compound 485, N4-[2-(6-methyl-2-pyridyl)pyrimidin-4-yl]-N2-[4-(oxazol-2-ylmethyl)phenyl]pyrimidine-2,4-diamine]: in assay [1], the Ki was 0.398 to 3.16 nM. In addition, in assay [2], the IC50 is 25.1 to 158 nM.
The corresponding values for `Cc1cccc(-c2nccc(Nc3ccnc(Nc4ccc(CN5CCC[C@H](C(=O)O[C@@H]6CCN(C)C6)C5)cc4)n3)n2)n1` [Compound 486, [(3R)-1-methylpyrrolidin-3-yl] (3S)-1-[[4-[[4-[[2-(6-methyl-2-pyridyl)pyrimidin-4-yl]amino]pyrimidin-2-yl]amino]phenyl]methyl] piperidine-3-carboxylate] are 0.0398 to 0.316 nM and 25.1 to 158 nM.
With `Cc1cccc(-c2nccc(Nc3ccnc(Nc4ccc(Cl)c(CN5C6CCC5CNC6)c4)n3)n2)n1` [Compound 487, N2-[4-chloro-3-(3,8-diazabicyclo[3.2.1]octan-8-ylmethyl)phenyl]-N4-[2-(6-methyl-2-pyridyl)pyrimidin-4-yl]pyrimidine-2,4-diamine], the Ki in assay [1] is 0.0398 to 0.316 nM. Moreover, the IC50 in assay [2] is 25.1 to 158 nM.
For the molecule `Cc1cccc(-c2nccc(Nc3ccnc(Nc4ccc(N5CCN[C@H](C(=O)O)C5)cc4)n3)n2)n1` [Compound 488, (2S)-4-[4-[[4-[[2-(6-methyl-2-pyridyl)pyrimidin-4-yl]amino]pyrimidin-2-yl]amino]phenyl]piperazine-2-carboxylic acid], the Ki in assay [1] was 0.0398 to 0.316 nM. The IC50 in assay [2] is 200 to 1260 nM.
In the same order, the values of `Cc1cccc(-c2nccc(Nc3ccnc(Nc4ccc(CC5CCNC5)cc4)n3)n2)n1` (stereo not drawn) [Compound 489, N4-(2-(6-methylpyridin-2-yl)pyrimidin-4-yl)-N2-(4-(pyrrolidin-3-ylmethyl)phenyl)pyrimidine-2,4-diamine] are 0.0398 to 0.316 nM and 25.1 to 158 nM.
The corresponding values for `Cc1cccc(-c2nccc(Nc3ccnc(Nc4ccc(NCC5(O)CNC5)cc4)n3)n2)n1` [Compound 490, 3-[[4-[[4-[[2-(6-methyl-2-pyridyl)pyrimidin-4-yl]amino]pyrimidin-2-yl]amino]anilino]methyl] azetidin-3-ol] are 0.0398 to 0.316 nM and 25.1 to 158 nM.
Turning to `COC(=O)CC1CN(c2ccc(Nc3nccc(Nc4ccnc(-c5cccc(C)n5)n4)n3)cc2)CCN1` (stereo not drawn) [Compound 491, methyl 2-[4-[4-[[4-[[2-(6-methyl-2-pyridyl)pyrimidin-4-yl]amino]pyrimidin-2-yl]amino]phenyl]piperazin-2-yl]acetate], the Ki in assay [1] is 0.0398 to 0.316 nM. Also, the IC50 in assay [2] was 25.1 to 158 nM.
For `Cc1cccc(-c2nccc(Nc3ccnc(Nc4ccc5c(c4)CCCN5)n3)n2)n1` [Compound 492, N4-[2-(6-methyl-2-pyridyl)pyrimidin-4-yl]-N2-(1,2,3,4-tetrahydroquinolin-6-yl)pyrimidine-2,4-diamine], the Ki in assay [1] was 0.398 to 3.16 nM. Further, in assay [2], the IC50 was 25.1 to 158 nM.
On to `COC1(C)CN(Cc2ccc(Nc3nccc(Nc4ccnc(-c5cccc(C)n5)n4)n3)cc2)C1` [Compound 493, N2-[4-[(3-methoxy-3-methyl-azetidin-1-yl)methyl]phenyl]-N4-[2-(6-methyl-2-pyridyl)pyrimidin-4-yl]pyrimidine-2,4-diamine], for which the Ki in assay [1] was 0.0398 to 0.316 nM. For the same molecule, the IC50 in assay [2] is 25.1 to 158 nM.
In the same order, the values of `Cc1cccc(-c2nccc(Nc3ccnc(Nc4ccc(N5CCN(CC(C)C)CC5)cc4)n3)n2)n1` [Compound 494, N2-[4-(4-isobutylpiperazin-1-yl)phenyl]-N4-[2-(6-methyl-2-pyridyl)pyrimidin-4-yl]pyrimidine-2,4-diamine] are 0.0398 to 0.316 nM and 25.1 to 158 nM.
As for `Cc1cccc(-c2nccc(Nc3ccnc(Nc4ccc(CN5CCCC(C(=O)NCC6CNC6)C5)cc4)n3)n2)n1` (stereo not drawn) [Compound 495, N-(azetidin-3-ylmethyl)-1-[[4-[[4-[[2-(6-methyl-2-pyridyl)pyrimidin-4-yl]amino]pyrimidin-2-yl]amino]phenyl]methyl] piperidine-3-carboxamide], the Ki in assay [1] is 0.0398 to 0.316 nM. Moreover, in assay [2], the IC50 is 25.1 to 158 nM.
The corresponding values for `Cc1cccc(-c2nccc(Nc3ccnc(Nc4ccc(N(C)C5CNC5)cc4)n3)n2)n1` [Compound 496, N2-[4-[azetidin-3-yl(methyl)amino]phenyl]-N4-[2-(6-methyl-2-pyridyl)pyrimidin-4-yl]pyrimidine-2,4-diamine] are 0.0398 to 0.316 nM and 25.1 to 158 nM.
The corresponding values for `Cc1cccc(-c2nccc(Nc3ccnc(Nc4cccc(N(C)C(=O)C5CCNCC5)c4)n3)n2)n1` [Compound 497, N-methyl-N-[3-[[4-[[2-(6-methyl-2-pyridyl)pyrimidin-4-yl]amino]pyrimidin-2-yl]amino]phenyl]piperidine-4-carboxamide] are 0.0398 to 0.316 nM and 200 to 1260 nM.
With `Cc1cccc(-c2nc(CC(=O)NCCO)cc(Nc3ccnc(Nc4ccc(N5CCNCC5)cc4)n3)n2)n1` [Compound 498, N-(2-hydroxyethyl)-2-[2-(6-methyl-2-pyridyl)-6-[[2-(4-piperazin-1-ylanilino)pyrimidin-4-yl]amino]pyrimidin-4-yl]acetamide], the Ki in assay [1] is 0.398 to 3.16 nM. Also, the IC50 in assay [2] was 200 to 1260 nM.
In the same order, the values of `Cc1cccc(-c2nccc(Nc3ccnc(Nc4ccc(N5CCNCC5)c(CC(=O)O[C@@H]5CCN(C)C5)c4)n3)n2)n1` [Compound 499, [(3R)-1-methylpyrrolidin-3-yl] 2-[5-[[4-[[2-(6-methyl-2-pyridyl)pyrimidin-4-yl]amino]pyrimidin-2-yl]amino]-2-piperazin-1-yl-phenyl]acetate] are 0.0398 to 0.316 nM and 200 to 1260 nM.
